Results on 28 molecules are retold here after article PMC8286840, “Identifying SARS-CoV-2 antiviral compounds by screening for small molecule inhibitors of Nsp3 papain-like protease” (Biochemical Journal, 2021).

Counter-ions that a name gives are not always drawn. Like-named read-outs stand apart in the source and are kept apart here.

Experiment [1] concerns the target T1, SARS-CoV-2 PLpro (nsp3 1564–1878) (Severe acute respiratory syndrome coronavirus 2, UniProt P0DTD1). The experiment in a line: biochemical. The following applies: high concentration screen, read-out: % of control remaining. Also noted: FRET-quenched peptide (Pro3) cleavage by PLpro, 10 min pre-incubation, slope over 20 min, normalised to no-compound control.
Experiment [2] addresses T1, SARS-CoV-2 PLpro (nsp3 1564–1878). The experiment in a line: biochemical. Also noted: FRET-quenched peptide (Pro3) cleavage by PLpro, 10 min pre-incubation, slope over 20 min, normalised to no-compound control. The conditions noted are these: low concentration screen, read-out: % of control remaining.

For `CCOC(=O)/C=C(C)/C=C/C=C(C)/C=C/c1c(C)cc(OC)c(C)c1C` [Etretinate], the remaining activity at 3.75 µM in experiment [1] (Well no.=2070) turned out to be 101%. In addition, the remaining activity at 1.25 µM in experiment [2] (Well no.=2070) was 102%.
In the case of `CC12CCC(CC1)C(C)(C)O2` [Eucalyptol], the remaining activity at 3.75 µM in experiment [1] (Well no.=6874) came out at 99.2%. In experiment [2] (Well no.=6874), the remaining activity at 1.25 µM was determined as 99.2%.
Consider `COc1ccc([C@@H]2OC[C@@H]3[C@H]2CO[C@H]3c2ccc(OC)c(OC)c2)cc1OC` [Eudesmine], for which the remaining activity at 3.75 µM in experiment [1] (Well no.=3117) was found to be 88.7%. In addition, in experiment [2] (Well no.=3117), the remaining activity at 1.25 µM came to 95.1%.
As to `C=CCc1ccc(O)c(OC)c1` [Eugenol], the remaining activity at 3.75 µM in experiment [1] (Well no.=4005) was 96.7%. The remaining activity at 1.25 µM in experiment [2] (Well no.=4005) came out at 92.8%.
Turning to `CC(=O)O[C@H]1[C@H]2[C@@H](OC(=O)Cc3ccccc3)[C@@H](C)C[C@]2(OC(C)=O)C(=O)/C(C)=C/[C@@H]2[C@H](CC[C@@]13CO3)C2(C)C` [Euphorbiasteroid], the remaining activity at 3.75 µM in experiment [1] (Well no.=3605) amounted to 109%. Further, the remaining activity at 1.25 µM in experiment [2] (Well no.=3605) is 103%.
Turning to `Cc1cc(C)c2c(c1)[C@@H](N(Cc1cc(C(F)(F)F)cc(C(F)(F)F)c1)c1nnn(C)n1)CCCN2C[C@H]1CC[C@H](C(=O)O)CC1` [Evacetrapib (LY2484595)], in experiment [1] (Well no.=5320), the remaining activity at 3.75 µM was found to be 100%. In experiment [2] (Well no.=5320), the remaining activity at 1.25 µM came out at 96.7%.
For the molecule `Cc1cc(-c2ccc(/N=N/c3ccc4c(S(=O)(=O)O)cc(S(=O)(=O)O)c(N)c4c3O)c(C)c2)ccc1/N=N/c1ccc2c(S(=O)(=O)O)cc(S(=O)(=O)O)c(N)c2c1O` [Evans Blue], in experiment [1] (Well no.=8652), the remaining activity at 3.75 µM was 92.3%. Further, the remaining activity at 1.25 µM in experiment [2] (Well no.=8652) amounted to 99.2%.
In the case of `CO[C@H]1C[C@@H]2CC[C@@H](C)[C@@](O)(O2)C(=O)C(=O)N2CCCC[C@H]2C(=O)O[C@H]([C@H](C)C[C@@H]2CC[C@@H](OCCO)[C@H](OC)C2)CC(=O)[C@H](C)/C=C(\C)[C@@H](O)[C@@H](OC)C(=O)[C@H](C)C[C@H](C)/C=C/C=C/C=C/1C` [Everolimus], in experiment [1] (Well no.=8740), the remaining activity at 3.75 µM was determined as 87.3%. Also, the remaining activity at 1.25 µM in experiment [2] (Well no.=8740) turned out to be 90.8%.
On to `C=C1C[C@@H]2[C@H](CC[C@]3(C)C(=O)CC[C@@H]23)[C@@]2(C)C=CC(=O)C=C12` [Exemestane], for which, in experiment [1] (Well no.=1623), the remaining activity at 3.75 µM came to 102%. Besides, the remaining activity at 1.25 µM in experiment [2] (Well no.=1623) worked out at 104%.
For the molecule `CCOC(=O)[C@@H](N)CCC(=O)N[C@@H](CSCc1ccccc1)C(=O)N[C@@H](C(=O)OCC)c1ccccc1` [Ezatiostat], in experiment [1] (Well no.=8366), the remaining activity at 3.75 µM turned out to be 90.3%. Also, the remaining activity at 1.25 µM in experiment [2] (Well no.=8366) is 91%.
For the molecule `O=C1[C@H](CC[C@H](O)c2ccc(F)cc2)[C@@H](c2ccc(O)cc2)N1c1ccc(F)cc1` [Ezetimibe], in experiment [1] (Well no.=8428), the remaining activity at 3.75 µM stood at 89.1%. In addition, the remaining activity at 1.25 µM in experiment [2] (Well no.=8428) is 91.6%.
With `NC(N)=Nc1nc(CSCC/C(N)=N/S(N)(=O)=O)cs1` [FAMOTIDINE], the remaining activity at 3.75 µM in experiment [1] (Well no.=471) was 104%; in experiment [1] (Well no.=1740) it was 101%; in experiment [1] (Well no.=6622) it was 106%. The values for the remaining activity at 1.25 µM in experiment [2] (Well no.=471), in experiment [2] (Well no.=1740) and in experiment [2] (Well no.=6622) were 103%, 101% and 104%, respectively.
In the case of `Cc1nc(C(=O)NCC(=O)O)c(O)c2ccc(Oc3ccccc3)cc12` [FG-4592], in experiment [1] (Well no.=4995), the remaining activity at 3.75 µM is 105%. Besides, in experiment [2] (Well no.=4995), the remaining activity at 1.25 µM turned out to be 102%.
As for `Cc1cc([N+](=O)[O-])ccc1NS(=O)(=O)c1cc(Cl)ccc1Cl` [FH535], the remaining activity at 3.75 µM in experiment [1] (Well no.=8814) is 98.3%. Besides, in experiment [2] (Well no.=8814), the remaining activity at 1.25 µM worked out at 96.3%.
On to `O=S(=O)(NC1CCCCC1)c1ccc2c(c1)C(=NO)c1cc(S(=O)(=O)NC3CCCCC3)ccc1-2` [FIN56], for which the remaining activity at 3.75 µM in experiment [1] (Well no.=6740) turned out to be 97.8%; in experiment [1] (Well no.=8726), 94.6%. The remaining activity at 1.25 µM in experiment [2] (Well no.=6740) is 99.6%; in experiment [2] (Well no.=8726), 93.4%.
Regarding `C=CC[C@@H]1/C=C(\C)C[C@H](C)C[C@H](OC)[C@H]2O[C@@](O)(C(=O)C(=O)N3CCCC[C@H]3C(=O)O[C@H](/C(C)=C/[C@@H]3CC[C@@H](O)[C@H](OC)C3)[C@H](C)[C@@H](O)CC1=O)[C@H](C)C[C@@H]2OC` [FK-506 (Tacrolimus)], the remaining activity at 3.75 µM in experiment [1] (Well no.=5168) came to 97.7%. For the same molecule, the remaining activity at 1.25 µM in experiment [2] (Well no.=5168) was 94%.
Turning to `Cc1ccc(C(=O)COC(=O)c2cccc(NC(=O)c3ccc([N+](=O)[O-])cc3[N+](=O)[O-])c2)cc1` [FM19G11], the remaining activity at 3.75 µM in experiment [1] (Well no.=5606) turned out to be 96.9%. Besides, the remaining activity at 1.25 µM in experiment [2] (Well no.=5606) amounted to 93.7%.
Regarding `COC(=O)c1c(C)[nH]c(C)c1C(=O)c1ccccc1Cc1ccccc1` [FPL 64176], the remaining activity at 3.75 µM in experiment [1] (Well no.=713) came to 94.1%. The remaining activity at 1.25 µM in experiment [2] (Well no.=713) came to 97.6%.
Turning to `COC(=O)[C@H](CCSC)NC(=O)c1ccc(NC[C@@H](N)CS)cc1-c1ccccc1` [FTI-277 (hydrochloride)], in experiment [1] (Well no.=8508), the remaining activity at 3.75 µM is 102%. Also, in experiment [2] (Well no.=8508), the remaining activity at 1.25 µM worked out at 101%.
Take `CC(=O)OCC(CCn1cnc2cnc(N)nc21)COC(C)=O` [Famciclovir]: the remaining activity at 3.75 µM in experiment [1] (Well no.=2074) amounted to 104%. In experiment [2] (Well no.=2074), the remaining activity at 1.25 µM turned out to be 101%.
As for `CC(C)=CCC/C(C)=C/CC/C(C)=C/CSc1ccccc1C(=O)O` [Farnesylthiosalicylic acid], the remaining activity at 3.75 µM in experiment [1] (Well no.=567) turned out to be 102%. The remaining activity at 1.25 µM in experiment [2] (Well no.=567) came to 102%.
For the molecule `O=C1c2ccccc2-[n+]2ccc3c([nH]c4ccccc43)c21` [Fascaplysin, Synthetic], the remaining activity at 3.75 µM in experiment [1] (Well no.=2458) came to 82.7%. Also, the remaining activity at 1.25 µM in experiment [2] (Well no.=2458) came out at 89%.
As for `O=S(=O)(c1cccc2cnccc12)N1CCCNCC1` [Fasudil hydrochloride - 1-(5-Isoquinolinesulfonyl)homopiperazine hydrochloride], the remaining activity at 3.75 µM in experiment [1] (Well no.=2338) was 99%. Further, the remaining activity at 1.25 µM in experiment [2] (Well no.=2338) worked out at 97.4%.
For the molecule `CCCc1cc(-c2nc(-c3ccc(C)cc3)cs2)ccn1` [Fatostatin HBr], in experiment [1] (Well no.=8822), the remaining activity at 3.75 µM came out at 92.8%. For the same molecule, the remaining activity at 1.25 µM in experiment [2] (Well no.=8822) was determined as 94.2%.
Regarding `NC(=O)OCC(COC(N)=O)c1ccccc1` [Felbamate], the remaining activity at 3.75 µM was determined as 104% in experiment [1] (Well no.=609) and 101% in experiment [1] (Well no.=1543). For the same molecule, the remaining activity at 1.25 µM was 101% in experiment [2] (Well no.=609) and 102% in experiment [2] (Well no.=1543).
For `CCOC(=O)C1=C(C)NC(C)=C(C(=O)OC)C1c1cccc(Cl)c1Cl` (centres unmarked) [Felodipine], in experiment [1] (Well no.=1757), the remaining activity at 3.75 µM stood at 102%. In addition, the remaining activity at 1.25 µM is 106% in experiment [2] (Well no.=521) and 99.7% in experiment [2] (Well no.=1757).
As to `COC(=O)Nc1nc2cc(Sc3ccccc3)ccc2[nH]1` [Fenbendazole], the remaining activity at 3.75 µM in experiment [1] (Well no.=2076) was found to be 102%. In addition, the remaining activity at 1.25 µM in experiment [2] (Well no.=2076) stood at 105%.
Consider `O=C(O)CCC(=O)c1ccc(-c2ccccc2)cc1` [Fenbufen], for which, in experiment [1] (Well no.=2078), the remaining activity at 3.75 µM was 102%. Also, the remaining activity at 1.25 µM in experiment [2] (Well no.=2078) amounted to 100%.
